Data: patent EP1246814B1, “COMPOUNDS AND METHODS FOR MODULATION OF ESTROGEN RECEPTORS” (SIGNAL PHARMACEUTICALS, INC., priority 1999, dated 2001)
Structures can show the parent of a compound that is named as a salt. Where two headings read alike, the source gives them in different places. One block for each compound: values may come before it.

Columns and labels:
human recombinant ER-α = target: T1, human recombinant ER-α (Homo sapiens, UniProt P03372); test: Solid phase ER binding assay (3H-estradiol competition), ER-α
T1 sequence (P03372 1-595): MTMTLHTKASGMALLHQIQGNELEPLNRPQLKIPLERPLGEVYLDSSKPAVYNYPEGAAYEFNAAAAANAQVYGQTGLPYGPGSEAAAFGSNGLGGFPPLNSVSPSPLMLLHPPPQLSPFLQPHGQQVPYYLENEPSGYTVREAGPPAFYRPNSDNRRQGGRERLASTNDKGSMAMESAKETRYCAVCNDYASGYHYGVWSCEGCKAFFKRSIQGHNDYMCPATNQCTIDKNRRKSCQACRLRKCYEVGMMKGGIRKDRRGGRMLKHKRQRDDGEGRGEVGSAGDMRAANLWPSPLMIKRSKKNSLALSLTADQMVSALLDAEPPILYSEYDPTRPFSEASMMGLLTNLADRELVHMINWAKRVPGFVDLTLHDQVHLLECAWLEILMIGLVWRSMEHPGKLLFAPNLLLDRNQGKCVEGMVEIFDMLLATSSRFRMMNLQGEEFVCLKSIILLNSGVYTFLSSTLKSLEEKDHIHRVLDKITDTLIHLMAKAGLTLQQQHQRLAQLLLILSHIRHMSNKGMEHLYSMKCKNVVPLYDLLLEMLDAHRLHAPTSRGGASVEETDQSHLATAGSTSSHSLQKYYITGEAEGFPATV

human full-length ER-β = target: T2, human full-length ER-β (Homo sapiens, UniProt Q92731); test: IL-6 production in U2OS osteosarcoma cells stably transfected with ER-β; assay type: cell-based; conditions: for ER subtype specificity (ER-β versus ER-α): comparison of the U2OS IL-6 IC50 values of Table 4
T2 construct: expression vectors for human full-length ER-α or ER-β; expressed in transfected cells
T2 sequence (Q92731 whole entry): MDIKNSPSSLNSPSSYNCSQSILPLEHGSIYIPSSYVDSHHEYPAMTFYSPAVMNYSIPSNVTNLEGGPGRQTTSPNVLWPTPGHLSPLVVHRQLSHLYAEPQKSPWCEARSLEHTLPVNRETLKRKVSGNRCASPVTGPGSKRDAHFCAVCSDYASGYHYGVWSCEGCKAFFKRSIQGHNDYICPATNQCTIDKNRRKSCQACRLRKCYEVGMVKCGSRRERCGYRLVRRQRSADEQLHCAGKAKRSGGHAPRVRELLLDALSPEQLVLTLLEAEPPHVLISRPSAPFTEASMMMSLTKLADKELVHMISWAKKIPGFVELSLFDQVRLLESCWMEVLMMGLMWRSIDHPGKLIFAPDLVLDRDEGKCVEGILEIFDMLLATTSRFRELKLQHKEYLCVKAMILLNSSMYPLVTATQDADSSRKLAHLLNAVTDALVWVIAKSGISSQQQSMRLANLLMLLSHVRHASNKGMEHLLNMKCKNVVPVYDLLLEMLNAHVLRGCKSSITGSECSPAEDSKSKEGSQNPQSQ
Procedure: (§1) Human U2OS osteosarcoma cells (ATCC) were stably transfected with expression vectors for human full-length ER-α or ER-β, respectively, using standard molecular biology techniques. Stable subclones were generated that expressed high levels of ER-α or ER-β mRNA. The expression of ER-α and ER-β was confirmed using RNase protection analysis.
(§2) Cells were plated into 96-well plates at a density of 8000 cells per well in phenol red-free media with charcoal-stripped fetal calf serum. Twenty-four hours later, cells were either treated with vehicle (0.2% DMSO) or test compound at the concentrations indicated (in 0.2% DMSO). Thirty minutes later cells were stimulated with 10 ng/ml IL-1β and 10 ng/ml TNF-α. Twenty-four hours later the media supernatant was analyzed for cytokine production (IL-6) using commercially available ELISA kits following the manufacturer's instructions. Cytokine production in the presence of vehicle (0.2% DMSO) was set to 100%.

U2OS IL-6 ER-Minus = test: IL-6 production in ER-minus U2OS osteosarcoma cells; assay type: cell-based; conditions: Homo sapiens
IL-6 = test: Human bone cell co-culture system, IL-6 production; assay type: cell-based; conditions: for IC50: human bone co-culture system of Example 12
Procedure: (§3) The generation of osteoblastic cells from normal adult femoral travecular bone from patients without evidence of metabolic bone disease was carried out as previously described (Kung Sutherland et al., Osteoporosis International 5:335-343, 1995; Wong et al., J Bone Miner 5:803-813, 1990). Bone fragments were cleaned of adherent tissue and blood and cultured for 4 weeks in medium containing Ham's F12 supplemented with 28 mM HEPES, pH 7.4, 10% FCS, 1.1 mM CaCl2, 2 mM glutamine, and 1% antibiotic-antimycotic agent. Upon confluency, the cells were harvested and immortalized using a retroviral vector (pLXSN) containing the neomycin resistance gene and the human papillomaviral (HPV18) E6 and E7 concogenes (International Journal of Oncology 6:167-174, 1995). The immortalized osteoblastic cells were selected in medium containing G418 (600 µg/ml).
(§4) The human U937 moncytic cell line (cloned from the commercially available cells by serial dilution) was maintained in RPMI 1640 medium containing 10% FCS and 1% antibiotic-antimycotic agent.
The co-culture system was established as follows. Human osteoblastic cells were plated in 96-well dishes at a density of 5 x 10^3 cells/well. U937 cells in RPMI medium (5 x 10^4 cells/well) were layered over the osteoblasts. The formation of osteoclast-like cells was induced with 100 nM PMA. To determine the effects of compounds or the neutralizing antibodies to IL-6 (Sigma) and GM-CSF (Pharmingen) on the formation of osteoclast-like cells, the compounds or the antibodies were added 30 minutes prior to the addition of PMA. The cultures were stopped after 96 hrs and processed for histochemical or immunohistochemical analyses.

human full-length ER-α = target: T3, human full-length ER-α (Homo sapiens, UniProt P03372); test: IL-6 production in U2OS osteosarcoma cells stably transfected with ER-α; assay type: cell-based
T3 construct: expression vectors for human full-length ER-α or ER-β; expressed in transfected cells
T3 sequence (P03372 1-595): T1 sequence (P03372 1-595)
Procedure: as §1, §2

human recombinant ER-β = human recombinant ER-β (Homo sapiens, UniProt Q92731); test: Solid phase ER binding assay (3H-estradiol competition), ER-β; conditions: ER binding assay of Example 18
Sequence of human recombinant ER-β (Q92731 whole entry): as above

[1] = 28-day uterine bioassay in ovariectomized rats; assay type: in vivo
GM-CSF = test: Human bone cell co-culture system, GM-CSF production; assay type: cell-based
Procedure: as §3, §4
The co-culture system was established as follows. Human osteoblastic cells were plated in 96-well dishes at a density of 5 x 10^3 cells/well. U937 cells in RPMI medium (5 x 10^4 cells/well) were layered over the osteoblasts. The formation of osteoclast-like cells was induced with 100 nM PMA. […]

[2] = 3-day immature rat uterine bioassay; conditions: s.c. administration
[3] = ER binding assay of Example 18, read-out: ER Binding Assay ER-α (Ki)

Compound: CCN(CC)CCOc1ccc(-c2c(-c3ccccc3)c(=O)oc3cc(O)ccc23)cc1 [Compound No. 38]
Ki (human recombinant ER-α; [3]): 690 nM
IC50 (human full-length ER-β): 165 nM
ER subtype specificity (ER-β versus ER-α) (human full-length ER-β): specificity for ER-β over ER-α
IC50 (U2OS IL-6 ER-Minus): > 10000 nM
IC50 (IL-6; read-out: IL-6 Activity (IC50)): 175 nM
IC50 (human full-length ER-α): > 1000 nM
Ki (human recombinant ER-β): 1560 nM

Compound: C[C@]12CC[C@@H]3c4ccc(O)cc4CC[C@H]3[C@@H]1CC[C@@H]2O [Estradiol, 17β-estradiol]
increase in uterine weight ([1]; ovariectomized rats, 28-day, daily s.c. injection): 550%
production of GM-CSF (GM-CSF; co-culture system): reduced the production of GM-CSF
IC50 (U2OS IL-6 ER-Minus): > 1000 nM
increase in uterine weight [2]: 4.5 fold
production of IL-6 (IL-6; co-culture system): suppress the production of IL-6

IC50 (U2OS IL-6 ER-Minus): > 1000 nM
Compound: CCC(=C(c1ccc(O)cc1)c1ccc(OCCN(C)C)cc1)c1ccccc1 [4-Hydroxy-Tamoxifen]

Compound: O=c1oc2cc(O)ccc2c(Cc2ccc(OCCN3CCCCC3)cc2)c1-c1ccccc1 [Compound No. 1, 3-PHENYL-4-[4-(2-{PIPERIDIN-1-YL})ETHOXY]-BENZYL-7-HYDROXYCOUMARIN]
Ki (human recombinant ER-α; read-out: Solid Phase ER Binding Ki (nM) ER-α, ER-α 15 nM, 30 nM 3H-estradiol, room temperature, average of at least 3 experiments): 1.4 nM
IC50 (GM-CSF; human bone co-culture system of Example 12, read-out: IC50 with respect to GM-CSF): 38 nM
increase in uterine weight ([2]; not statistically different from vehicle (PEG-400)): ~30%
IC50 (IL-6; read-out: IC50 with respect to IL-6): 10 nM

IC50 (human full-length ER-β): 51 nM
ER subtype specificity (ER-β versus ER-α) (human full-length ER-β): specificity for ER-β over ER-α
IC50 (U2OS IL-6 ER-Minus): > 1000 nM
IC50 (human full-length ER-α): 325 nM
Compound: O=c1oc2cc(O)ccc2c(-c2ccc(OCCN3CCCCC3)cc2)c1-c1ccc(Cl)cc1 [compound 16]

Ki (human recombinant ER-α; [3]): > 10000 nM
IC50 (human full-length ER-β): > 1000 nM
IC50 (U2OS IL-6 ER-Minus): > 1000 nM
IC50 (IL-6; read-out: IL-6 Activity (IC50)): > 1000 nM
IC50 (human full-length ER-α): > 1000 nM
Compound: CCN(CC)CCOc1ccc(-c2c(-c3ccccc3)c(=O)oc3ccccc23)cc1 ["L-20", reference compound]

increase in uterine weight ([1]; female, rat, in vivo, sc, 28 day): ~70%
IC50 (U2OS IL-6 ER-Minus): > 1000 nM
increase in uterine weight ([2]; 1mg/kg dose): up to 50%
Compound: O=C(c1ccc(OCCN2CCCCC2)cc1)c1c(-c2ccc(O)cc2)sc2cc(O)ccc12 [Raloxifene HCl, Raloxifene Hydrochloride]
